From patent publication US20240190849A1, “AMINOPYRIMIDINE COMPOUNDS AND METHODS OF THEIR USE” (TYRA BIOSCIENCES, INC., priority 2021, published 2024)

Assays:
Conditions in all cases: FGFR binding data
[1] = biological target: T1, FGFR1 (Homo sapiens, UniProt P11362); experiment: Kinase binding assay (kinase-tagged T7 phage, affinity beads, qPCR readout), FGFR1
T1 construct: made in house; host or cells: E. coli derived from BL21, infected with T7 phage
How it was run: (§1)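 Phage lysate kinase + liganded magnetic beads + compound, 11-pt 3-fold series, 0.9% DMSO; 1 h RT shaking. Wash, elute 30 min with 0.5 μM non-biotinylated ligand; qPCR readout. Hill fit, slope −1 → Kd.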

[2] = biological target: T2, FGFR2 (Homo sapiens, UniProt P21802); experiment: Kinase binding assay (kinase-tagged T7 phage, affinity beads, qPCR readout), FGFR2
T2 construct: made in house; host or cells: E. coli derived from BL21, infected with T7 phage
T2 sequence (P21802 22-821): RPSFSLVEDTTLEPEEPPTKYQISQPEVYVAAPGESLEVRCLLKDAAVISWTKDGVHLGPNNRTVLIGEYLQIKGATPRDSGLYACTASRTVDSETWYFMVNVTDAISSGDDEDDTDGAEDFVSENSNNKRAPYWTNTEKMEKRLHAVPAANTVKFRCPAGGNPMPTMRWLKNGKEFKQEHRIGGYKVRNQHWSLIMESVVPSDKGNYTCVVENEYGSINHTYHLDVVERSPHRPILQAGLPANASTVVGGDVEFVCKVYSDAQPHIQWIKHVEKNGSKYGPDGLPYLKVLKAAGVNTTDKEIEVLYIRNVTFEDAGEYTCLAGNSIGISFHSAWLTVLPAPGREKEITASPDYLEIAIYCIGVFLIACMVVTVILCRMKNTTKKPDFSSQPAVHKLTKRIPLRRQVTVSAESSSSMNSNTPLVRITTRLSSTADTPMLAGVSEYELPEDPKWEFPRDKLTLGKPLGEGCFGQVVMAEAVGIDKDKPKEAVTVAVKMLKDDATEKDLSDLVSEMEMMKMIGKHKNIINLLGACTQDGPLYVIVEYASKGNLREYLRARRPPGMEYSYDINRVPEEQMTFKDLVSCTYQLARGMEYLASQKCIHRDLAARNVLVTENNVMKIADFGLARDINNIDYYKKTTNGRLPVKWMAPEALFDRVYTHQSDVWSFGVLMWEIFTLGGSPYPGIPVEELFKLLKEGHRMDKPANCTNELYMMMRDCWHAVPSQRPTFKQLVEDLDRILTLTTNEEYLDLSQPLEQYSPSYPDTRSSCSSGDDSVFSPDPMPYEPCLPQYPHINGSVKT
How it was run: as §1

[3] = biological target: T3, FGFR3 (Homo sapiens, UniProt P22607); experiment: Kinase binding assay (kinase-tagged T7 phage, affinity beads, qPCR readout), FGFR3
T3 construct: made in house; host or cells: E. coli derived from BL21, infected with T7 phage
T3 sequence (P22607 23-806): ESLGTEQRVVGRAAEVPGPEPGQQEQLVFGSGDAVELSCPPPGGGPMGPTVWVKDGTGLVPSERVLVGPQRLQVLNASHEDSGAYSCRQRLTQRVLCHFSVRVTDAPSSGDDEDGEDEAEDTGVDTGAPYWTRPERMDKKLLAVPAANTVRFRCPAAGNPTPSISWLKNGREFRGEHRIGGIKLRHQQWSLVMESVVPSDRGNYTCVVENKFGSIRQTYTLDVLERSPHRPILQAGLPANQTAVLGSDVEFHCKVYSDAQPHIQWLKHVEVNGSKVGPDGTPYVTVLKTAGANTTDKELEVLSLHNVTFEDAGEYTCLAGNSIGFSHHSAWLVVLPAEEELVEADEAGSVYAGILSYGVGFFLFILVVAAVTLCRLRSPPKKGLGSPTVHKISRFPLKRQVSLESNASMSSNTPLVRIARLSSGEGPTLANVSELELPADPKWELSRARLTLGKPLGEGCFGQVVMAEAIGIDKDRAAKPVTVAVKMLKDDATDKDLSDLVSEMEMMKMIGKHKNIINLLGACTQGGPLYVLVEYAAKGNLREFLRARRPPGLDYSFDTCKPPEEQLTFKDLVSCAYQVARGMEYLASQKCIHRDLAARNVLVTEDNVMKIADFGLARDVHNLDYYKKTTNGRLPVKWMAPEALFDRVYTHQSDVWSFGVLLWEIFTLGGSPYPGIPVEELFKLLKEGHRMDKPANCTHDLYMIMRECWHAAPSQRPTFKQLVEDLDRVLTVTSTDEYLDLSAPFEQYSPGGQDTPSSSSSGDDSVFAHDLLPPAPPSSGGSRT
How it was run: as §1

[4] = biological target: T4, FGFR3 (V555M) (Homo sapiens, UniProt P22607, V555M); experiment: Kinase binding assay (kinase-tagged T7 phage, affinity beads, qPCR readout), FGFR3 (V555M)
T4 construct: made in house; host or cells: E. coli derived from BL21, infected with T7 phage
T4 sequence (P22607 23-806 V555M): as the sequence (P22607 23-806) above, with V533M counted along it
How it was run: as §1

T1 sequence (P11362 22-822): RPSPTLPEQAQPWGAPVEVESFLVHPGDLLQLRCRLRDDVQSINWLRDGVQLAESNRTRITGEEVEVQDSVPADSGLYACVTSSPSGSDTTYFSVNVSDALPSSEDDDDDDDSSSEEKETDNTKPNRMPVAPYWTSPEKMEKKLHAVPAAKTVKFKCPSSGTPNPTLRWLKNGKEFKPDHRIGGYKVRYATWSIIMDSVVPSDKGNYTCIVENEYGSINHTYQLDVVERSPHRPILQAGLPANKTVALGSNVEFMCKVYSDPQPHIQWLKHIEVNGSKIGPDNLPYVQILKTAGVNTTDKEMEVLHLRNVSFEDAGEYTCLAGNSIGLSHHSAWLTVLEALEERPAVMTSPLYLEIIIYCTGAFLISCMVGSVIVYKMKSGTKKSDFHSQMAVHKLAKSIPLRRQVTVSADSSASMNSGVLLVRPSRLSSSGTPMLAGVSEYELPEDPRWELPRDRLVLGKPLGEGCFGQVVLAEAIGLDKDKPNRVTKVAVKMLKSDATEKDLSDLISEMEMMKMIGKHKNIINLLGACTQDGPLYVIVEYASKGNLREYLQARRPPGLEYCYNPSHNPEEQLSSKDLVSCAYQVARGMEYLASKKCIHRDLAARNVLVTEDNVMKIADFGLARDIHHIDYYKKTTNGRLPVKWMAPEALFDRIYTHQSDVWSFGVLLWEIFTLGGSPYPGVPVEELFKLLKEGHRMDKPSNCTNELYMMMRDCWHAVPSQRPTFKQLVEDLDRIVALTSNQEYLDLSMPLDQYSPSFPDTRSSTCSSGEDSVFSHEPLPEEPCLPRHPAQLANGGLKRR

| SMILES | Kd [1] [nM] | Kd [2] [nM] | Kd [3] [nM] | Kd [4] [nM] |
| --- | --- | --- | --- | --- |
| C=C(C)C(=O)Nc1cnc2c(c1)c(C)cn2-c1nc(Nc2ccn(C)n2)ncc1C [Example 118, 2-methyl-N-[3-methyl-1-[5-methyl-2-[(1-methylpyrazol-3-yl)amino]pyrimidin-4-yl]pyrrolo[2,3-b]pyridin-5-yl]prop-2-enamide] | > 1000 | > 1000 | > 1000 | > 1000 |
| C=CC(=O)Nc1cnc2c(c1)c(C)cn2-c1nc(Nc2ccn(CCO)n2)ncc1C [Example 119, N-[1-[2-[[1-(2-hydroxyethyl)pyrazol-3-yl]amino]-5-methyl-pyrimidin-4-yl]-3-methyl-pyrrolo[2,3-b]pyridin-5-yl]prop-2-enamide] | 0.1 to 100 | 0.1 to 100 | 0.1 to 100 | 0.1 to 100 |
| C#CC(=O)Nc1ccc2c(c1)c(C)cn2-c1nc(Nc2cnn(CCO)c2)ncc1F [Example 129, N-[1-[5-fluoro-2-[[1-(2-hydroxyethyl)pyrazol-4-yl]amino]pyrimidin-4-yl]-3-methyl-indol-5-yl]prop-2-ynamide] | 0.1 to 100 | 0.1 to 100 | 0.1 to 100 | 0.1 to 100 |
| CC#CC(=O)Nc1ccc2c(c1)c(C)cn2-c1nc(Nc2ccnn2C)ncc1C [Example 130, N-[3-methyl-1-[5-methyl-2-[(2-methylpyrazol-3-yl)amino]pyrimidin-4-yl]indol-5-yl]but-2-ynamide] | > 1000 | 250 to 1000 | > 1000 | 250 to 1000 |
| CC#CC(=O)Nc1cnc2c(c1)c(C)cn2-c1nc(Nc2ccnn2C)ncc1C [Example 131, N-[3-methyl-1-[5-methyl-2-[(2-methylpyrazol-3-yl)amino]pyrimidin-4-yl]pyrrolo[2,3-b]pyridin-5-yl]but-2-ynamide] | > 1000 | > 1000 | > 1000 | > 1000 |
| C#CC(=O)Nc1cnc2c(c1)c(C)cn2-c1nc(Nc2ccnn2C)ncc1C [Example 132, N-[3-methyl-1-[5-methyl-2-[(2-methylpyrazol-3-yl)amino]pyrimidin-4-yl]pyrrolo[2,3-b]pyridin-5-yl]prop-2-ynamide] | 0.1 to 100 | 0.1 to 100 | 0.1 to 100 | 0.1 to 100 |
| C#CC(=O)Nc1cnc2c(c1)c(C)cn2-c1nc(Nc2cnn(CCO)c2)ncc1F [Example 133, N-[1-[5-fluoro-2-[[1-(2-hydroxyethyl)pyrazol-4-yl]amino]pyrimidin-4-yl]-3-methyl-pyrrolo[2,3-b]pyridin-5-yl]prop-2-ynamide] | 0.1 to 100 | 0.1 to 100 | 0.1 to 100 | 0.1 to 100 |
| CC#CC(=O)Nc1cnc2c(c1)c(C)cn2-c1nc(Nc2ccnn2C)ncc1F [Example 134, N-[1-[5-fluoro-2-[(2-methylpyrazol-3-yl)amino]pyrimidin-4-yl]-3-methyl-pyrrolo[2,3-b]pyridin-5-yl]but-2-ynamide] | > 1000 | > 1000 | > 1000 | > 1000 |
| CC#CC(=O)Nc1ccc2c(-c3nc(Nc4cnn(CCO)c4)ncc3Cl)cn(C)c2c1 [Example 135, N-[3-[5-chloro-2-[[1-(2-hydroxyethyl)pyrazol-4-yl]amino]pyrimidin-4-yl]-1-methyl-indol-6-yl]but-2-ynamide] | 250 to 1000 | 0.1 to 100 | 100 to 250 | 0.1 to 100 |
| C=CC(=O)Nc1ccc2c(c1)c(C)cn2-c1ccnc(Nc2cnn(CCO)c2)n1 [Example 137, N-[1-[2-[[1-(2-hydroxyethyl)pyrazol-4-yl]amino]pyrimidin-4-yl]-3-methyl-indol-5-yl]prop-2-enamide] | 0.1 to 100 | 0.1 to 100 | 0.1 to 100 | 0.1 to 100 |
| C#CC(=O)Nc1ccc2c(c1)c(C)cn2-c1nc(Nc2ccnn2C)ncc1F [Example 138, N-[1-[5-fluoro-2-[(2-methylpyrazol-3-yl)amino]pyrimidin-4-yl]-3-methyl-indol-5-yl]prop-2-ynamide] | 100 to 250 | 0.1 to 100 | 0.1 to 100 | 0.1 to 100 |
| CC#CC(=O)Nc1ccc2c(c1)c(C)cn2-c1nc(Nc2ccnn2C)ncc1F [Example 139, N-[1-[5-fluoro-2-[(2-methylpyrazol-3-yl)amino]pyrimidin-4-yl]-3-methyl-indol-5-yl]but-2-ynamide] | > 1000 | > 1000 | > 1000 | > 1000 |
| CC#CC(=O)Nc1ccc2c(c1)c(C)cn2-c1nc(Nc2cnn(CCO)c2)ncc1C [Example 140, N-[1-[2-[[1-(2-hydroxyethyl)pyrazol-4-yl]amino]-5-methyl-pyrimidin-4-yl]-3-methyl-indol-5-yl]but-2-ynamide] | 100 to 250 | 0.1 to 100 | 0.1 to 100 | 0.1 to 100 |
| C#CC(=O)Nc1cnc2c(c1)c(C)cn2-c1nc(Nc2cnn(CCO)c2)ncc1C [Example 141, N-[1-[2-[[1-(2-hydroxyethyl)pyrazol-4-yl]amino]-5-methyl-pyrimidin-4-yl]-3-methyl-pyrrolo[2,3-b]pyridin-5-yl]prop-2-ynamide] | 0.1 to 100 | 0.1 to 100 | 0.1 to 100 | 0.1 to 100 |
| C#CC(=O)Nc1ccc2c(-c3nc(Nc4cnn(CCO)c4)ncc3F)cn(C)c2c1 [Example 142, N-[3-[5-fluoro-2-[[1-(2-hydroxyethyl)pyrazol-4-yl]amino]pyrimidin-4-yl]-1-methyl-indol-6-yl]prop-2-ynamide] | 0.1 to 100 | 0.1 to 100 | 0.1 to 100 | 0.1 to 100 |
| C#CC(=O)Nc1ccc2c(-c3ccnc(Nc4cnn(CCO)c4)n3)cn(C)c2c1 [Example 143, N-[3-[2-[[1-(2-hydroxyethyl)pyrazol-4-yl]amino]pyrimidin-4-yl]-1-methyl-indol-6-yl]prop-2-ynamide] | 0.1 to 100 | 0.1 to 100 | 0.1 to 100 | 0.1 to 100 |
| CC#CC(=O)Nc1ccc2c(-c3ccnc(Nc4cnn(CCO)c4)n3)cn(C)c2c1 [Example 145, N-[3-[2-[[1-(2-hydroxyethyl)pyrazol-4-yl]amino]pyrimidin-4-yl]-1-methyl-indol-6-yl]but-2-ynamide] | > 1000 | 250 to 1000 | 250 to 1000 | 250 to 1000 |
| C=CC(=O)N(C)c1ccc2c(c1)c(C)cn2-c1nc(Nc2ccnn2C)ncc1C [Example 151, N-methyl-N-[3-methyl-1-[5-methyl-2-[(2-methylpyrazol-3-yl)amino]pyrimidin-4-yl]indol-5-yl]prop-2-enamide] | > 1000 | > 1000 | > 1000 | > 1000 |
| CC#CC(=O)N(C)c1ccc2c(c1)c(C)cn2-c1nc(Nc2ccnn2C)ncc1C [Example 152, N-methyl-N-[3-methyl-1-[5-methyl-2-[(2-methylpyrazol-3-yl)amino]pyrimidin-4-yl]indol-5-yl]but-2-ynamide] | > 1000 | > 1000 | > 1000 | > 1000 |
| C=CC(=O)Nc1ccc2c(c1)c(C)cn2-c1nc(Nc2conc2C)ncc1F [Example 155, N-[1-[5-fluoro-2-[(3-methylisoxazol-4-yl)amino]pyrimidin-4-yl]-3-methyl-indol-5-yl]prop-2-enamide] | 100 to 250 | 0.1 to 100 | 0.1 to 100 | 0.1 to 100 |
